Experimental data as given in patent US20230076977A1, “UTROPHIN UPREGULATION COMPOUNDS FOR DUCHENNE MUSCULAR DYSTROPHY THERAPY” (THE TRUSTEES OF THE UNIVERSITY OF PENNSYLVANIA, priority 2020, published 2023).
Read-outs that look alike come from different tables or passages of the source.

How the values were obtained:
C2C12 cells = test: Cytotoxicity in C2C12 cells treated with increasing TSA concentrations; assay type: cell-based; settings: 24 hours
Procedure: (§1) TSA is a broad-spectrum HDAC inhibitor. […] To further validate in vitro the dose-dependent capacity of TSA to upregulate utrophin protein, C2C12 cells were treated for 24 hours with increasing concentrations of TSA (from 1 nM to 10 μM) (FIG. 3B). Consistent with the single-dose western blot validation experiments, utrophin protein levels were increased 4.3 times by 1 μM TSA. […] Some cytotoxicity was evident for TSA concentrations higher than 1 μM.

[1] = tested on: HDAC activity and proliferation of cancer cells; settings: depending on the particular cell line; cited from earlier work
[2] = tested on: 5′- and 3′-UTRs of human utrophin; test: Screening assay: C2C12 stable reporter line, CMV-driven luciferase flanked by utrophin 5′ and 3′ UTRs; assay type: cell-based; settings: for EC50: C2C12
Procedure: (§2) The construct for the HTS assay was generated by cloning the 5′- and 3′-UTRs of human utrophin into pGL4:50-hygro (Promega, Madison, Wis.) at the 5′ and 3′ of the luciferase coding sequence and has been described previously by Moorwood. […] For the counterscreening assay, the pGL4:50-hygro plasmid was used alone. Low passage C2C12 cells obtained from ATCC were transfected with either constructs, stably selected with 500 μg/mL hygromycin and subcloned using two rounds of serial dilutions to isolate single cell-derived colonies in a 96 wells plate format. […] The selected clones were cultured in presence of 100 μg/mL hygromycin B and were transferred to the HTS Facility at the University of Pennsylvania for implementation into a 384-wells format suitable for HTS.
(§3) The construct for generating the screening C2C12 cell line carrying the 5′ and 3′UTR of the human utrophin gene is described by Moorwood. […] Some compounds could increase light emission independently from the 5′ and 3′UTR regions, i.e., by activating the CMV promoter or increasing overall mRNA synthesis. Therefore, in order to distinguish such compounds, a counterscreening cell line stably expressing only the CMV-driven luciferase gene was generated (FIG. 1A). To determine optimal conditions for the implementation in a 384-wells high-throughput format, evaluated were DMSO tolerance, optimal cell density and incubation time (FIG. 5A-5C).
(§4) A first criterion for evaluating the performance of the selected hits was whether their activity was dose-dependent. After performing a dose-response analysis (5 nM to 10 μM) of each hit in the screening cell line, a clustering approach was applied (complete linkage with Euclidean distance measurement) to highlight similarities between compounds profiles. […] By modeling each dose-response trace with a 4-parameter logistic model applied to the Z— score values (FIG. 2B), the EC50 of each molecule was calculated.
(§5) Cells were allowed to attach overnight at 37° C., 5% CO2 in a humidified chamber. […] Compounds were added to a final concentration of 1 μM and 100 nM in 0.2% DMSO. Columns 1 and 23 were treated with 0.2% DMSO (negative control). Columns 2 and 24 were treated with 100 nM Panobinostat (positive control). Cells were incubated for 24 hours at 37° C., 5% CO2. […] Luminescence was measured on an EnVisionXcite Multilabel Plate Reader (PerkinElmer), using ultrasensitive luminescence measurement technology.

mdx mouse model of DMD = test: Preclinical TSA treatment in the mdx mouse model of DMD; assay type: in vivo
Procedure: Four-week-old mdx mice (C57BL/10ScSn-DMDmdx/J) were injected intraperitoneally on alternate days with Trichostatin A (Wako Chemicals USA-Inc, Richmond, Va.; dose 30 μg/kg), or an equal volume of sterile PBS for three months. All animal experiments were approved by the Institutional Animal Care and Use Committee at the University of Pennsylvania School of Medicine.
Functional in vivo and ex vivo analyses including rotarod, EDL strength, and sensitivity to damage induced by lengthening contractions (ECC), were performed as described by Krag, et al. Proc. Natl. Acad. Sci. U.S.A. 101, 13856-13860 (2004) and Bogdanovich, S. et al. Functional improvement of dystrophic muscle by myostatin blockade. Nature 420, 418-421 (2002), each of which is incorporated herein by reference in its entirety. Following the procedure, muscles were flash-frozen in liquid nitrogen-cooled isopentane and stored at −80° C.
(§6) Total RNA was extracted from TA muscle samples with RNAeasy kit (Qiagen, USA) and reverse transcribed with random hexamers. qPCR was performed using Taqman probes for Utrophin (Assay ID Mm01168846_ml) and β-actin. Muscle tissue samples were lysed with TNEC buffer (50 mM Tris-HCl, pH 8.0; 150 mMNaCl; 1% NP40; 2 mM EDTA) buffer containing complete protease inhibitor cocktail (Roche, Basel, Switzerland). C2C12 cells were treated for 24 h with 1 μM concentrations of compounds from a fresh batch (3 wells for each compound), and cell samples were lysed with RIPA buffer with protease inhibitor cocktail. The experiment was repeated three independent times. 50-75 μg of total proteins from muscle tissues, or 4 μg of cell protein extracts, were resolved on a 3-8% Tris-Acetate gradient gel (NuPage; Invitrogen), transferred to PDVF or nitrocellulose membranes and mouse monoclonal anti-utrophin antibody MANCHO3 clone 8A4 (developed by Glenn E. Morris and obtained from the Developmental Studies Hybridoma Bank, Iowa) or a custom-made anti-UtrophinA rabbit polyclonal antibody (muscle tissue samples) generated and described previously by Chakkalakal et al., Nucleic Acids Res. 36, 826-838 (2008), which is incorporated herein by reference in its entirety.
To test the ability of TSA to increase utrophin in vivo and improve the dystrophic phenotype, 4 week-old mdx mice were treated with i.p. injections of 30 μg/kg body weight TSA, on alternating days for a total of 3 months.

[3] = tested on: CMV-driven luciferase gene; test: Counterscreening assay: C2C12 line stably expressing only the CMV-driven luciferase gene; assay type: cell-based; settings: Mus musculus, C2C12, read-out: counterscreening EC50
Procedure: as §2, §3, §4, §5

[4] = tested on: utrophin protein in C2C12 cells; test: Utrophin western blot in C2C12 cells (endogenous protein expression); assay type: cell-based; settings: 24 hours
Procedure: The 10 highest scoring hits were selected from this subset for performing in vitro validation. C2C12 cells were treated with 1 μM concentrations of the selected hits for 24 hours, followed by western blot evaluation of utrophin levels as an orthogonal assay for endogenous protein expression. […] Panobinostat, an FDA-approved non-selective HDAC inhibitor for cancer treatment, increased utrophin levels by 1.9-fold. […] AR-42 (S2244), another HDAC inhibitor with proven preclinical efficacy in contrasting cancer-induced cachexia, increased utrophin by 2.3-fold and had the second highest H2LPS. Consistent with the calculated HPS, the highest scoring hit, TSA (S1045), had also the highest magnitude of protein upregulation (3.9-fold) followed by PCI-24781 (S1090; 3.7-fold). Importantly, high H2LPS was generally correlated with confirmation in WB assays (FIG. 2E).
as §6, §1

[5] = ex vivo EDL, treated mdx, normalized by cross sectional area
[6] = treated mdx, TSA 30 μg/kg i.p. alternate days, 3 months

## CC(/C=C/C(=O)NO)=C\[C@@H](C)C(=O)c1ccc(N(C)C)cc1 [Trichostatin A]
C2C12 cells
  concentrations at which some cytotoxicity was evident: higher than 1 μM
[1]
  IC50 in vitro: nM to μM range
[2]; 4-parameter logistic fit of Z-scores, 24 h, no unit in table (0.013 = 13 nM), read-out: EC50 screen
  EC50: 13 nM
[2]; read-out: EC50 score (1 to 4)
  EC50: < 50 nM
[2]; read-out: screening EC50
  EC50: 13 nM
[2]; difference between upper and lower boundaries of the fitted dose-response screening curve
  Upper-lower limits scoren: 34.53
[2]; fold difference between the EC50s of screening and counterscreening
  Fold diff: 119.82
Mdx mouse model of DMD; EDL, 5 consecutive eccentric contractions, treated mdx
  ECC force drop 1-5: 25.81 ± 4.46%
Mdx mouse model of DMD; EDL, series of 5 ECCs, FIG. 4G
  less force lost than control-treated muscles after the 5th ECC: 37%
Mdx mouse model of DMD; TA muscle, qPCR, after TSA treatment
  Utrophin mRNA levels increased: 4.9 fold
Mdx mouse model of DMD; TA muscle, western blot, after TSA treatment
  utrophin protein levels increased: 2 fold
Mdx mouse model of DMD; TA muscles, FIG. 7
  myostatin or follistatin gene expression: did not cause changes
Mdx mouse model of DMD; TSA-treated EDL muscles vs control
  lower number of centrally nucleated fibers: 30%
Mdx mouse model of DMD; before and after normalization by crossectional area
  isometric twitch and tetanic strength of EDL muscles: significantly higher
Mdx mouse model of DMD; compared to control-treated mice
  effect on body weight or the wet weight of skeletal muscles and organs: did not affect
Mdx mouse model of DMD; ex vivo EDL, treated mdx
  EDL Tetanic force: 351.9 ± 16.61 mN
  EDL Twitch force: 64.19 ± 4.22 mN
Mdx mouse model of DMD; [5]
  EDL Tetanic force (specific): 166.0 ± 9.09 mN/mm^2
  EDL Twitch force (specific): 29.98 ± 1.84 mN/mm^2
Mdx mouse model of DMD; mouse, in vivo
  serum creatine kinase or hydroxyproline content in TA and diaphragm muscles: No significant changes
Mdx mouse model of DMD; treated mdx
  Diaphragm Hydroxyproline Diaphragm: 3.33 ± 0.22 µg/mg
  Diaphragm Hydroxyproline TA: 0.90 ± 0.06 µg/mg
  EDL CNF (centrally nucleated fibers): 24.62 ± 2.30%
  EDL CSA (cross sectional area): 2.20 ± 0.13 mm^2
  EDL L0 (muscle length): 12.16 ± 0.20 mm
  Serum CK: 7450 ± 2381 U/L
Mdx mouse model of DMD; [6]
  EDL muscle weight: 17.5 ± 0.4 mg
  Gastrocnemius muscle weight: 213.0 ± 11.0 mg
  Heart weight: 159.7 ± 5.2 mg
  Kidneys weight: 532.3 ± 25.8 mg
  Liver weight: 1179.0 ± 36.4 mg
  Quadriceps muscle weight: 234.6 ± 8.7 mg
  Soleus muscle weight: 12.8 ± 0.4 mg
  Tibialis Anterior (TA) muscle weight: 66.1 ± 1.5 mg
Mdx mouse model of DMD; treated mdx, TSA 30 μg/kg i.p. alternate days, 3 months, mean ± SEM
  Body weight: 30.2 ± 0.5 g
Mdx mouse model of DMD; treated vs control mdx
  rotarod test performance: performed significantly better than control mdx
[3]
  EC50: 1300 nM
[4]; 1 μM, normalized to tubulin, vs 0.1% DMSO control
  Utrophin protein levels, fold increase: 3.9 fold
[4]; Mus musculus, C2C12, 1 nM to 10 μM, read-out: EC50 for utrophin protein levels
  EC50: 88 nM
[4]; dose-response western blot, 1 μM TSA
  utrophin protein levels increased: 4.3 times
